Tests used:
[1] = system: Neurodegenerated cells (perinatal tissue derived human stem cell model for Alzheimer's disease); test: Lactate dehydrogenase (LDH) assay, in vitro model of Alzheimer's disease; format: cell-based; conditions: probucol 20 μM, SPQ 10 μM, HA-1 10 μM, rivastigmine 2 μM, 24 hours; compared to ND cells
Description: (§1) Perinatal tissue derived human stem cell model for Alzheimer's disease (AD) was prepared using proprietary protocols to test the effect of new drug entities. Drug treatment was for 24 h in all the assays.
LDH leakage is a well characterised marker of cellular membrane damage and increase in indicative of lactate deficit, is a hallmark of AD.

[2] = biological target: T1, Acetylcholinesterase (AChE) (Homo sapiens, UniProt P22303); test: Acetylcholinesterase (AChE) activity, Amplex Red reagent-based assay, Alzheimer's disease model; format: cell-based; conditions: probucol 20 μM, SPQ 10 μM, HA-1 10 μM, rivastigmine 2 μM, 24 hours
T1 construct: We assayed for AChE activity and ACh release in control, neurodegenerated AD and drug treated AD cells; endogenous in cells; host or cells: neurodegenerated cells of a human stem cell AD model derived from perinatal tissue (amniotic membrane mesenchymal stem cells are named for the MTT assay)
T1 sequence (P22303 32-614): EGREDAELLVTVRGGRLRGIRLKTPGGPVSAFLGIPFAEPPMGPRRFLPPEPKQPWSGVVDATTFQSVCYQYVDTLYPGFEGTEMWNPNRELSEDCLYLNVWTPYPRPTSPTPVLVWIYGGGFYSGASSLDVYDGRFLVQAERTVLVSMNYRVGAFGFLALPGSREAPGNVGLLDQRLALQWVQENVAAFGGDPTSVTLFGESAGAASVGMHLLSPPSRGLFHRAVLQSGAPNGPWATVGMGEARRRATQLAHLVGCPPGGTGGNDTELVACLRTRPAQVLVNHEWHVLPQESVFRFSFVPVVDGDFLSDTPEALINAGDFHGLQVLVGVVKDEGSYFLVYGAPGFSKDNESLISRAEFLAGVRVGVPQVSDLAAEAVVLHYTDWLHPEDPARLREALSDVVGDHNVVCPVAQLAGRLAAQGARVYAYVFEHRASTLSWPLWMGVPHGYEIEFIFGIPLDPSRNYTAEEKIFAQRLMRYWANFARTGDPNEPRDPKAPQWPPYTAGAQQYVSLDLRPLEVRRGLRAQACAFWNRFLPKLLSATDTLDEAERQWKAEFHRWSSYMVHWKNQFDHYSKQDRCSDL
Description: as §1
(§2) Acetylcholinesterase (AChE) that regulates hydrolysis of acetylcholine (ACh) in the brain, is an important target for treatment of Alzheimer's disease (AD), a feature of which is ACh deficiency. We assayed for AChE activity and ACh release in control, neurodegenerated AD and drug treated AD cells.

[3] = system: Neurodegenerated cells (Alzheimer's disease model); test: Acetylcholine (ACh) release, Amplex Red reagent-based assay, Alzheimer's disease model; format: cell-based, human; conditions: probucol 20 μM, SPQ 10 μM, HA-1 10 μM, rivastigmine 2 μM, 24 hours
Description: as §1, §2

[4] = system: Neurodegenerated cells (Alzheimer's disease model); test: Mitochondrial membrane potential by TMRE assay, Alzheimer's disease model; format: cell-based, human; conditions: AD model; probucol 20 μM, SPQ 10 μM, HA-1 10 μM, rivastigmine 2 μM, 24 hours
Description: as §1
Aβ plaques are sources of toxicity that lead to severe structural and functional abnormalities in mitochondria in Alzheimer's disease. For assessing the changes in the electrophysiology and functional changes in the mitochondrial membrane potential, we used TMRE (tetramethylrhodamine ethyl ester) for quantifying changes in mitochondrial membrane potential in live cells by fluorimetry.

[5] = system: Neurodegenerated cells (Alzheimer's disease model); test: ROS (reactive oxygen species) assay, Alzheimer's disease model; format: cell-based, human; conditions: AD model
Description: as §1
(§3) Increase in oxidative stress is associated with accumulation of amyloid beta seen in the AD model. Increased oxidative stress and nitric oxide levels lead to apoptosis and evoke cytotoxic effects on neurons.

[6] = system: Neurodegenerated cells (Alzheimer's disease model); test: Greiss (nitric oxide) assay, Alzheimer's disease model; format: cell-based, human; conditions: AD model
Description: as §1, §3

[7] = system: Neurodegenerated cells (Alzheimer's disease model); test: Glutathione peroxidase / GSH activity, Alzheimer's disease model; format: cell-based, human; conditions: AD model; vs neurodegeneration
Description: as §1
Alzheimer's disease-related increase in oxidative stress is associated with decrease in the levels of brain antioxidant glutathione (GSH).
(Statistical analysis: results are expressed in mean±SD. One-way ANOVA followed by Dunnett's post hoc test was performed to compare all columns vs neurodegeneration (p<0.05; *p<0.05, **p<0.001, ***p<0.0001, ns=non-significant, n=3).)

[8] = system: Neurodegenerated cells (perinatal tissue derived human stem cell model for Parkinson's disease); test: Mitochondrial membrane potential by TMRE assay, Parkinson's disease model; format: cell-based; conditions: PD model; probucol 20 μM, SPQ 10 μM, HA-1 10 μM, L-Dopa 50 μM, 24 hours
Description: (§4) Perinatal tissue derived human stem cell model for Parkinson's disease (PD) was prepared using proprietary protocols to test the effect of new drug entities. Drug treatment was for 24 hours in all the assays.
Dysfunctional mitochondria and alterations in the mitochondrial membrane potential promote neurodegeneration seen in Parkinson's disease. For assessing the changes in mitochondrial membrane potential, we used TMRE (tetramethylrhodamine ethyl ester) to quantify the changes in live cells by fluorimetry.
Neurodegenerated cells were incubated with probucol (20 μM), SPQ (10 μM), HA-1 (10 μM) and L-Dopa (50 μM) for 24 hours (p<0.05; *p<0.05, **p<0.001, ***p<0.0001, ns=non-significant, n=3).

[9] = system: Neurodegenerated cells (Parkinson's disease model); test: Gene expression analysis by qRT-PCR for neuronal, dopaminergic and PD associated markers; format: cell-based, human; conditions: 24 hours drug treatment
Description: as §4
Gene expression levels of mature neuronal marker (Synapsin I), dopaminergic markers (Nuclear receptor related 1 (Nurr1), Dopamine transporter (DAT) and Tyrosine hydroxylase (TH)), and PD associated marker (α-synuclein) were analysed to determine the effect of probucol, SPQ, HA-1 and L-Dopa.
(A) Synapsin I, (B) Nurr1, (C) DAT, (D) TH and (E) α-synuclein. (p<0.05; *p<0.05, **p<0.001, ***p<0.0001, n=3).

[10] = system: Neurodegenerated cells (Parkinson's disease model); test: Immunocytochemical localization of PD specific and neuronal markers; format: cell-based, human; conditions: fluorescence micrographs
Description: as §4
For further confirmation and protein localization of neuronal, dopaminergic and PD specific neurodegenerative markers, we performed immunolocalization for synapsin I, Nurr1, TH and α-synuclein respectively.
Fluorescence micrographs of synapsin 1 positive neuronal cells were obtained and the effects of probucol, SPQ and HA-1 on neurodegeneration model with L-Dopa as positive control were compared.
Fluorescence micrographs of Nurr1 positive dopaminergic neuronal cells were obtained and the effects of probucol, SPQ and HA-1 on neurodegeneration model with L-Dopa as positive control were compared.
Fluorescence micrographs of TH positive dopaminergic neuronal cells were obtained and the effects of probucol, SPQ and HA-1 on neurodegeneration model with L-Dopa as positive control were compared.
Fluorescence micrographs of α-synuclein immunolocalization were obtained and the effects of probucol, SPQ and HA-1 on neurodegeneration model with L-Dopa as positive control were compared.

[11] = system: Neurodegenerated cells (Parkinson's disease model); test: ROS assay, Parkinson's disease model; format: cell-based, human; conditions: PD model
Description: as §4
(§5) Increase in oxidative stress associated with accumulation of α-synuclein plays a central role in disease progression. Nitric oxide enhances the aggregation of α-synuclein and accelerates disease progression. Increased oxidative stress and nitric oxide levels lead to apoptosis and evoke cytotoxic effects on neurons.

[12] = system: Neurodegenerated cells (Parkinson's disease model); test: Greiss (nitric oxide) assay, Parkinson's disease model; format: cell-based, human; conditions: PD model
Description: as §4, §5

[13] = system: Neurodegenerated cells (Parkinson's disease model); test: Glutathione peroxidase / GSH activity, Parkinson's disease model; format: cell-based, human; conditions: PD model; vs neurodegeneration
Description: as §4
Parkinson's disease-related increase in oxidative stress is associated with mitochondrial dysfunction and subsequent decrease in the levels of brain antioxidant glutathione (GSH).
(Statistical analysis: Results are expressed in mean±SD. One-way ANOVA followed by Dunnett's post hoc test was performed to compare all columns vs neurodegeneration (p<0.05; *p<0.05, **p<0.001, ***p<0.0001, ns=non-significant, n=3).)

Row | Structure (SMILES) | LDH activity / LDH release [1] | Acetylcholinesterase (AChE) activity [2] | Acetylcholine (ACh) release / level [3] | mitochondrial membrane potential (TMRE) [4] | intracellular reactive oxidative stress (ROS) [5] | nitric oxide level [6] | glutathione (GSH) activity [7] | mitochondrial membrane potential (TMRE) [8] | DAT gene expression (qRT-PCR) [9] | Nurr1 gene expression (qRT-PCR) [9] | TH gene expression (qRT-PCR) [9] | α-synuclein gene expression (qRT-PCR) [9] | Nurr1 (immunolocalization) [10] | TH (immunolocalization) [10] | accumulation of α-synuclein (immunolocalization) [10] | synapsin protein expression (immunolocalization) [10] | intracellular reactive oxidative stress (ROS) [11] | nitric oxide level [12] | glutathione (GSH) activity [13] | Synapsin I gene expression (qRT-PCR) [9]
1 | CC(=O)O[C@@H]1CC[C@@]2(C)[C@H](CC[C@@H]3[C@@H]2CC[C@]2(C)[C@@H]([C@H](C)CCC(=O)Oc4c(C(C)(C)C)cc(SC(C)(C)Sc5cc(C(C)(C)C)c(O)c(C(C)(C)C)c5)cc4C(C)(C)C)CC[C@@H]32)C1 [HA-1, 2,6-di-tert-butyl-4-((2-((3,5-di-tert-butyl-4-hydroxyphenyl)thio)propan-2-yl)thio)phenyl (4R)-4-[(3R,5R,8R,9S,10S,13R,14S,17R)-3-acetoxy-10,13-dimethyl-2,3,4,5,6,7,8,9,11,12,14,15,16,17-tetradecahydro-1H-cyclopenta[a]phenanthren-17-yl]pentanoate] | decreased significantly LDH activity | inhibition of acetylcholinesterase (AChE) similar to rivastigmine | increase/maintain the level of acetylcholine (ACh) | maintain the mitochondrial membrane potential | decrease the level of ROS | prevent the reduction of endogenous nitric oxide level | increase in the anti-oxidant GSH activity | maintain the mitochondrial membrane potential | increase the expression of all the dopaminergic markers tested | increase the expression of all the dopaminergic markers tested | increase the expression of all the dopaminergic markers tested | decreased expression of α-synuclein | more pronounced | more pronounced | least expression | clear restoration of synapsin expression | decrease the level of ROS | prevent the reduction of endogenous nitric oxide levels | increase in the GSH activity | –
2 | CC1(C)SC2(C=C(C(C)(C)C)C(=O)C(C(C)(C)C)=C2)C2(C=C(C(C)(C)C)C(=O)C(C(C)(C)C)=C2)S1 [SPQ, 2,4,9,11-tetrakis(1,1-dimethylethyl)-14,14-dimethyl-13,15-dithiadispiro[5.0.5.3]pentadeca-1,4,8,11-tetraene-3,10-dione] | decreased significantly LDH activity | inhibition of acetylcholinesterase (AChE) similar to rivastigmine | increase/maintain the level of acetylcholine (ACh) | maintain the mitochondrial membrane potential | decrease the level of ROS | prevent the reduction of endogenous nitric oxide level | increase in the anti-oxidant GSH activity | enhanced restoration of the mitochondrial membrane potential | significantly increased | – | significantly increased | decreased expression of α-synuclein | more pronounced | more pronounced | – | clear restoration of synapsin expression | decrease the level of ROS | prevent the reduction of endogenous nitric oxide levels | increase in the GSH activity | significantly increased
3 | CC(C)(Sc1cc(C(C)(C)C)c(O)c(C(C)(C)C)c1)Sc1cc(C(C)(C)C)c(O)c(C(C)(C)C)c1 [probucol, 2,6-ditert-butyl-4-[2-(3,5-ditert-butyl-4-hydroxyphenyl)sulfanylpropan-2-ylsulfanyl]phenol] | decreased significantly LDH activity | inhibition of acetylcholinesterase (AChE) similar to rivastigmine | increase/maintain the level of acetylcholine (ACh) | maintain the mitochondrial membrane potential | decrease the level of ROS | prevent the reduction of endogenous nitric oxide level | increase in the anti-oxidant GSH activity | maintain the mitochondrial membrane potential | – | – | clearly upregulated | decreased expression of α-synuclein | more pronounced | more pronounced | – | clear restoration of synapsin expression | decrease the level of ROS | prevent the reduction of endogenous nitric oxide levels | increase in the GSH activity | –

From US20240374739A1, “BILE ACID CONJUGATE” (Curtin University, priority 2021, published 2024)
